Assays:
Type in all cases: in vivo
Design in all cases: key: 5=total damage to plant; 0=no damage to plant
SETFA = Setaria faberi [1] = experiment: Post-emergence herbicidal activity, glasshouse pot test; details: for SEFTA damage score (0-5): comparison of enantiomers; for SETFA damage score (0-5): 1000 g/Ha, evaluated after 13 days
Description: (§1) Seeds of a variety of test species were sown in standard soil in pots. After 8 days cultivation (post-emergence) under controlled conditions in a glasshouse (at 24/16° C., day/night; 14 hours light; 65% humidity), the plants were sprayed with an aqueous spray solution derived from the formulation of the technical active ingredient in acetone/water (50:50) solution containing 0.5% Tween 20 (polyoxyethelyene sorbitan monolaurate, CAS RN 9005-64-5). The test plants were then grown in a glasshouse under controlled conditions (at 24/16° C., day/night; 14 hours light; 65% humidity) and watered twice daily. After 13 days, the test was evaluated (5=total damage to plant; 0=no damage to plant). Pre- and post-emergence testing was carried out as detailed above on the compounds A1, A2, A4 and A5 and their respective S-enantiomers.

[2] = system: AMARE = Amaranthus retroflexus; experiment: as above
Description: as §1

[3] = system: ECHCG = Echinochloa crus-galli; experiment: as above
Description: as §1

ZEAMX = Zea mays [4] = experiment: as above
Description: as §1

[5] = system: ABUTH = Abutilon theophrasti; experiment: as above
Description: as §1

LOLPE [6] = experiment: as above
Description: as §1

SETFA = Setaria faberi [7] = experiment: Pre-emergence herbicidal activity, glasshouse pot test; details: for SEFTA damage score (0-5): comparison of enantiomers; for SETFA damage score (0-5): 1000 g/Ha, evaluated after 13 days
Description: as §1, with “After” for “After 8 days”, “for one day (pre-emergence)” for “(post-emergence)”

[8] = system: AMARE = Amaranthus retroflexus; experiment: as above
Description: as §1, with “After” for “After 8 days”, “for one day (pre-emergence)” for “(post-emergence)”

[9] = system: ECHCG = Echinochloa crus-galli; experiment: as above
Description: as §1, with “After” for “After 8 days”, “for one day (pre-emergence)” for “(post-emergence)”

ZEAMX = Zea mays [10] = experiment: as above
Description: as §1, with “After” for “After 8 days”, “for one day (pre-emergence)” for “(post-emergence)”

[11] = system: ABUTH = Abutilon theophrasti; experiment: as above
Description: as §1, with “After” for “After 8 days”, “for one day (pre-emergence)” for “(post-emergence)”

LOLPE [12] = experiment: as above
Description: as §1, with “After” for “After 8 days”, “for one day (pre-emergence)” for “(post-emergence)”

[13] = comparison of enantiomers, 62.5 g/Ha
[14] = comparison of enantiomers, 250 g/Ha
[15] = 1000 g/Ha, evaluated after 13 days

Row | Structure (SMILES) | SEFTA damage score (0-5) (SETFA = Setaria faberi [1]; 62.5 g/Ha) | SEFTA damage score (0-5) (SETFA = Setaria faberi [1]; 250 g/Ha) | AMARE damage score (0-5) [2, 13] | AMARE damage score (0-5) [2, 14] | ECHCG damage score (0-5) [3, 13] | ECHCG damage score (0-5) [3, 14] | ZEAMX damage score (0-5) (ZEAMX = Zea mays [4]; [14]) | ABUTH damage score (0-5) [5, 13] | ABUTH damage score (0-5) [5, 14] | LOLPE damage score (0-5) (LOLPE [6]; [14]) | SEFTA damage score (0-5) (SETFA = Setaria faberi [7]; 250 g/Ha) | AMARE damage score (0-5) [8, 13] | AMARE damage score (0-5) [8, 14] | ECHCG damage score (0-5) [9, 13] | ECHCG damage score (0-5) [9, 14] | ZEAMX damage score (0-5) (ZEAMX = Zea mays [10]; [13]) | ZEAMX damage score (0-5) (ZEAMX = Zea mays [10]; [14]) | ABUTH damage score (0-5) [11, 13] | ABUTH damage score (0-5) [11, 14] | LOLPE damage score (0-5) (LOLPE [12]; [13]) | also measured
1 | CO[C@H]1C(O)N(c2cc(C(C)(C)C)on2)C(=O)N1C (stereo partly drawn) [A1 S-enantiomer, reference compound] | 0 | 2 | 5 | 5 | 1 | 1 | 1 | 0 | 2 | 1 | 0 | 5 | 5 | 0 | 0 | 0 | 0 | 0 | 0 | 0 | ZEAMX damage score (0-5) (ZEAMX = Zea mays [4]; [13]): 1; LOLPE damage score (0-5) (LOLPE [6]; [13]): 0; SEFTA damage score (0-5) (SETFA = Setaria faberi [7]; 62.5 g/Ha): 0; LOLPE damage score (0-5) (LOLPE [12]; [14]): 0
2 | CCO[C@@H]1C(O)N(c2cc(C(C)(C)F)on2)C(=O)N1C (stereo partly shown) [Example A5] | 5 | 5 | 5 | 5 | 5 | 5 | 5 | 5 | 5 | 5 | 5 | 5 | 5 | 5 | 2 | 5 | 5 | 5 | 5 | 4 | SETFA damage score (0-5) (SETFA = Setaria faberi [1]): 5; AMARE damage score (0-5) [2, 15]: 5; ECHCG damage score (0-5) [3, 15]: 5; ZEAMX damage score (0-5) (ZEAMX = Zea mays [4]; [15]): 5; ZEAMX damage score (0-5) (ZEAMX = Zea mays [4]; [13]): 5; ABUTH damage score (0-5) [5, 15]: 5; LOLPE damage score (0-5) (LOLPE [6]; [15]): 5; LOLPE damage score (0-5) (LOLPE [6]; [13]): 5; SETFA damage score (0-5) (SETFA = Setaria faberi [7]): 5; SEFTA damage score (0-5) (SETFA = Setaria faberi [7]; 62.5 g/Ha): 5; AMARE damage score (0-5) [8, 15]: 5; ECHCG damage score (0-5) [9, 15]: 5; ZEAMX damage score (0-5) (ZEAMX = Zea mays [10]; [15]): 3; ABUTH damage score (0-5) [11, 15]: 5; LOLPE damage score (0-5) (LOLPE [12]; [15]): 5; LOLPE damage score (0-5) (LOLPE [12]; [14]): 5
3 | CCO[C@@H]1C(O)N(c2cc(C(C)(C)C)on2)C(=O)N1C (single isomer, unassigned) [Example A2] | 3 |  | 5 | 5 | 5 | 5 | 5 | 5 | 5 | 5 | 5 | 5 | 5 | 5 | 4 | 4 | 4 | 3 | 3 | 3 | SETFA damage score (0-5) (SETFA = Setaria faberi [1]): 5; AMARE damage score (0-5) [2, 15]: 5; ECHCG damage score (0-5) [3, 15]: 5; ZEAMX damage score (0-5) (ZEAMX = Zea mays [4]; [15]): 4; ZEAMX damage score (0-5) (ZEAMX = Zea mays [4]; [13]): 5; ABUTH damage score (0-5) [5, 15]: 5; SETFA damage score (0-5) (SETFA = Setaria faberi [7]): 1; AMARE damage score (0-5) [8, 15]: 5; ECHCG damage score (0-5) [9, 15]: 4; ZEAMX damage score (0-5) (ZEAMX = Zea mays [10]; [15]): 2; ABUTH damage score (0-5) [11, 15]: 5
4 | COC[C@H]1C(O)N(c2cc(C(C)(C)C)on2)C(=O)N1C (stereo partly drawn) [A4 S-enantiomer, reference compound] | 0 | 0 | 0 | 2 | 0 | 1 | 0 | 0 | 0 | 0 | 0 | 1 | 3 | 0 | 0 | 0 | 0 | 0 | 0 | 0 | ZEAMX damage score (0-5) (ZEAMX = Zea mays [4]; [13]): 0; LOLPE damage score (0-5) (LOLPE [6]; [13]): 0; SEFTA damage score (0-5) (SETFA = Setaria faberi [7]; 62.5 g/Ha): 0; LOLPE damage score (0-5) (LOLPE [12]; [14]): 0
5 | COC[C@@H]1C(O)N(c2cc(C(C)(C)C)on2)C(=O)N1C (stereo partly drawn) [Example A4, (4R)-1-(5-tert-butylisoxazol-3-yl)-5-hydroxy-4-(methoxymethyl)-3-methyl-imidazolidin-2-one] | 1 | 5 | 5 | 5 | 0 | 5 | 5 | 1 | 5 | 5 | 5 | 5 | 5 | 1 | 5 | 0 | 4 | 1 | 3 | 0 | SETFA damage score (0-5) (SETFA = Setaria faberi [1]): 5; AMARE damage score (0-5) [2, 15]: 5; ECHCG damage score (0-5) [3, 15]: 5; ZEAMX damage score (0-5) (ZEAMX = Zea mays [4]; [15]): 5; ABUTH damage score (0-5) [5, 15]: 5; LOLPE damage score (0-5) (LOLPE [6]; [15]): 5; LOLPE damage score (0-5) (LOLPE [6]; [13]): 1; SETFA damage score (0-5) (SETFA = Setaria faberi [7]): 4; AMARE damage score (0-5) [8, 15]: 5; ECHCG damage score (0-5) [9, 15]: 5; ZEAMX damage score (0-5) (ZEAMX = Zea mays [10]; [15]): 3; ABUTH damage score (0-5) [11, 15]: 5; LOLPE damage score (0-5) (LOLPE [12]; [15]): 5; LOLPE damage score (0-5) (LOLPE [12]; [14]): 5

Source: US20170121319A1, “Herbicidal Compounds” (Syngenta Participations AG, priority 2014, published 2017)
